Results published in patent publication US20250243196A1, “CITRON KINASE INHIBITORS” (The Cleveland Clinic Foundation, priority 2021, published 2025).

Tests used:
AAK1 = AAK1 (Homo sapiens (Human), UniProt Q2M2I8); assay: KinaseProfiler radiometric assay (16-043KP); assay type: biochemical; settings: mean of at least two independent experiments
Excerpt: (§1) In another aspect, disclosed is a method of inhibiting citron kinase in a sample, comprising contacting the sample with a compound described herein (e.g., a compound of formula (I) or a pharmaceutically acceptable salt thereof), or a pharmaceutical composition described herein (e.g., a pharmaceutical composition comprising a compound of formula (I) or a pharmaceutically acceptable salt thereof), in an amount effective to inhibit citron kinase. In some embodiments, the step of contacting the sample with the compound comprises administering the compound to a subject (e.g., a subject) suffering from cancer. Methods of determining kinase inhibition are well known in the art. For example, kinase activity of an enzyme and the inhibitory capacity of a test compound can be determined by measuring enzyme specific phosphorylation of a substrate. Commercial assays and kits can be employed. For example, kinase inhibition can be determined using a radiometric binding assay, such as using KinaseProfiler™ technology (Eurofins Discovery). This assay method directly detects product formation without the use of modified substrates or coupling enzymes. […]
(§2) The effect of various compounds on the inhibition of other kinases has also been determined. Table 2 reports measured IC50 values; value units are nanomolar inhibition.

Citron kinase = Citron kinase (Homo sapiens (Human), UniProt O14578); assay: Radiometric citron kinase assay (Eurofins Cat #16-040KP); assay type: biochemical; settings: mean of at least two independent assays; read-out: Radiometric CitK IC50
Summary of the method: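 Radiometric KinaseProfiler format: test compound incubated with kinase, substrate, cofactors and radiolabelled ATP; unreacted ATP washed away and radiolabelled phosphate incorporated into substrate measured. IC50 derived from inhibition of phosphorylation. Values are means of at least two independent assays.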

ROCK-2 = ROCK-2 (Homo sapiens (Human), UniProt O75116); assay: KinaseProfiler radiometric assay (14-451KP); assay type: biochemical; settings: mean of at least two independent experiments
Excerpt: (§3) In another aspect, disclosed is a method of inhibiting citron kinase in a sample, comprising contacting the sample with a compound described herein (e.g., a compound of formula (I) or a pharmaceutically acceptable salt thereof), or a pharmaceutical composition described herein (e.g., a pharmaceutical composition comprising a compound of formula (I) or a pharmaceutically acceptable salt thereof), in an amount effective to inhibit citron kinase. In some embodiments, the step of contacting the sample with the compound comprises administering the compound to a subject (e.g., a subject) suffering from cancer. Methods of determining kinase inhibition are well known in the art. For example, kinase activity of an enzyme and the inhibitory capacity of a test compound can be determined by measuring enzyme specific phosphorylation of a substrate. Commercial assays and kits can be employed. For example, kinase inhibition can be determined using a radiometric binding assay, such as using KinaseProfiler™ technology (Eurofins Discovery). This assay method directly detects product formation without the use of modified substrates or coupling enzymes. Test compounds are incubated with kinase, substrate, required cofactors and radioisotope labeled ATP. Following incubation, unreacted radioactive ATP is removed by washing and incorporation of the radiolabeled phosphate into the kinase substrate is assayed to detect phosphoryltransferase activity, which is directly proportional to the amount of phosphorylated substrate. Inhibition of the kinase by a kinase inhibitor prevents phosphorylation of the substrate and thereby limits the incorporation of radiolabeled phosphate. Such an assay is compatible with a microwell assay format, allowing simultaneous determination of IC50 of multiple compounds.
as §2

HIPK4 = HIPK4 (Homo sapiens (Human), UniProt Q8NE63); assay: KinaseProfiler radiometric assay (15-003KP); assay type: biochemical; settings: mean of at least two independent experiments
Chain of HIPK4 (Q8NE63 whole entry): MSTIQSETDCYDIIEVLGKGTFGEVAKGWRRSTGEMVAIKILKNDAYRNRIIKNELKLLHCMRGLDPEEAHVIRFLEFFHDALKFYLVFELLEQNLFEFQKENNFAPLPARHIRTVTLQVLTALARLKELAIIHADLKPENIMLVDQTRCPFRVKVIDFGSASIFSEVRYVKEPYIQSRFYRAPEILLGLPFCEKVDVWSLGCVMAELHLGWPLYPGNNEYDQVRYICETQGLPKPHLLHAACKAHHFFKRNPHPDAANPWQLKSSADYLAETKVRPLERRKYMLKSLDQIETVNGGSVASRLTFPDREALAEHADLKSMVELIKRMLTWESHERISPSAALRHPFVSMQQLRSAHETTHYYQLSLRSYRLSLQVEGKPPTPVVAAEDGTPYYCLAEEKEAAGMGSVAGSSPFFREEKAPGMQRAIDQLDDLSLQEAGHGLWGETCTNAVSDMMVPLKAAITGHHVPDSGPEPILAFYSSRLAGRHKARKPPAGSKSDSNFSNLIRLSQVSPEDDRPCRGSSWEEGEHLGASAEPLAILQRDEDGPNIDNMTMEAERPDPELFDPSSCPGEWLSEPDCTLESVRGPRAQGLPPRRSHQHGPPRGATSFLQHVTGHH
Excerpt: as §1, §2

Mnk2 = Mnk2 (Homo sapiens (Human), UniProt Q9HBH9); assay: KinaseProfiler radiometric assay (14-664KP); assay type: biochemical; settings: mean of at least two independent experiments
Excerpt: as §1, §2

DRAK2 = DRAK2 (Homo sapiens (Human), UniProt O94768); assay: KinaseProfiler radiometric assay (16-003KP); assay type: biochemical; settings: mean of at least two independent experiments
Chain of DRAK2 (O94768 whole entry): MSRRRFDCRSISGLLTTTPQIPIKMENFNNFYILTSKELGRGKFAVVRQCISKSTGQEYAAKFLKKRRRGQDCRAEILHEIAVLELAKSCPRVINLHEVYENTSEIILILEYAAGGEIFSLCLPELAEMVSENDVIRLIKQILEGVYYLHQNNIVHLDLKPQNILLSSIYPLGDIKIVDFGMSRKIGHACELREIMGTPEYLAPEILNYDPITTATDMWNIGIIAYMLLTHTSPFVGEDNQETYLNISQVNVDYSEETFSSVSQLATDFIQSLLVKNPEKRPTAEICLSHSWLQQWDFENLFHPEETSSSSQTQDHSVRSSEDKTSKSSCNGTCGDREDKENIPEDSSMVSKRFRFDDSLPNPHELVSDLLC
Excerpt: as §3, with “In” for “In another aspect, disclosed is a method of inhibiting citron kinase in a sample, comprising contacting the sample with a compound described herein (e.g., a compound of formula (I) or a pharmaceutically acceptable salt thereof), or a pharmaceutical composition described herein (e.g., a pharmaceutical composition comprising a compound of formula (I) or a pharmaceutically acceptable salt thereof), in an amount effective to inhibit citron kinase. In”

ACK1 = ACK1 (Homo sapiens (Human), UniProt Q07912); assay: KinaseProfiler radiometric assay (14-756KP); assay type: biochemical; settings: mean of at least two independent experiments
Excerpt: as §3, with “In” for “In another aspect, disclosed is a method of inhibiting citron kinase in a sample, comprising contacting the sample with a compound described herein (e.g., a compound of formula (I) or a pharmaceutically acceptable salt thereof), or a pharmaceutical composition described herein (e.g., a pharmaceutical composition comprising a compound of formula (I) or a pharmaceutically acceptable salt thereof), in an amount effective to inhibit citron kinase. In”

IKKβ = IKKβ (Homo sapiens (Human), UniProt O14920); assay: KinaseProfiler radiometric assay (14-485KP); assay type: biochemical; settings: mean of at least two independent experiments
Chain of IKKβ (O14920 whole entry): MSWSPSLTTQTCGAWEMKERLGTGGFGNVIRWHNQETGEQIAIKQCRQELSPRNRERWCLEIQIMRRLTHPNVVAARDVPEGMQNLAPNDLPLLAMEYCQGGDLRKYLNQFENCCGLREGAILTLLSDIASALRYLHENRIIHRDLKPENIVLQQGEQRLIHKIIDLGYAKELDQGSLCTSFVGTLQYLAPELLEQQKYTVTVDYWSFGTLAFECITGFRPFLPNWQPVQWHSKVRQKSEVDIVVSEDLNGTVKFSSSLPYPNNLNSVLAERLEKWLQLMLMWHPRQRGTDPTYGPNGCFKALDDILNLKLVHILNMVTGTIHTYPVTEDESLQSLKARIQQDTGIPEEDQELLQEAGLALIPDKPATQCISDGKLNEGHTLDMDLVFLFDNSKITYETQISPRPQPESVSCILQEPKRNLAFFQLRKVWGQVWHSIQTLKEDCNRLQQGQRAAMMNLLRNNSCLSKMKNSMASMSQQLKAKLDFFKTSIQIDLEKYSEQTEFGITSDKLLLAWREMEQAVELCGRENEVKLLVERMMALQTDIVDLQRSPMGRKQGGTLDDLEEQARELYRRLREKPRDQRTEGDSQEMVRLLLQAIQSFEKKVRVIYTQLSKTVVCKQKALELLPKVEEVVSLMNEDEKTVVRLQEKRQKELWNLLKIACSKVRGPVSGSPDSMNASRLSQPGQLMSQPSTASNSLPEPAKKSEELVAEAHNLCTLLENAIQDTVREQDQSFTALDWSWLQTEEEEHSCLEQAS
Excerpt: as §3, §2

BIKE = BIKE (Homo sapiens (Human), UniProt Q9NSY1); assay: KinaseProfiler radiometric assay (16-044KP); assay type: biochemical; settings: mean of at least two independent experiments
Chain of BIKE (Q9NSY1 whole entry): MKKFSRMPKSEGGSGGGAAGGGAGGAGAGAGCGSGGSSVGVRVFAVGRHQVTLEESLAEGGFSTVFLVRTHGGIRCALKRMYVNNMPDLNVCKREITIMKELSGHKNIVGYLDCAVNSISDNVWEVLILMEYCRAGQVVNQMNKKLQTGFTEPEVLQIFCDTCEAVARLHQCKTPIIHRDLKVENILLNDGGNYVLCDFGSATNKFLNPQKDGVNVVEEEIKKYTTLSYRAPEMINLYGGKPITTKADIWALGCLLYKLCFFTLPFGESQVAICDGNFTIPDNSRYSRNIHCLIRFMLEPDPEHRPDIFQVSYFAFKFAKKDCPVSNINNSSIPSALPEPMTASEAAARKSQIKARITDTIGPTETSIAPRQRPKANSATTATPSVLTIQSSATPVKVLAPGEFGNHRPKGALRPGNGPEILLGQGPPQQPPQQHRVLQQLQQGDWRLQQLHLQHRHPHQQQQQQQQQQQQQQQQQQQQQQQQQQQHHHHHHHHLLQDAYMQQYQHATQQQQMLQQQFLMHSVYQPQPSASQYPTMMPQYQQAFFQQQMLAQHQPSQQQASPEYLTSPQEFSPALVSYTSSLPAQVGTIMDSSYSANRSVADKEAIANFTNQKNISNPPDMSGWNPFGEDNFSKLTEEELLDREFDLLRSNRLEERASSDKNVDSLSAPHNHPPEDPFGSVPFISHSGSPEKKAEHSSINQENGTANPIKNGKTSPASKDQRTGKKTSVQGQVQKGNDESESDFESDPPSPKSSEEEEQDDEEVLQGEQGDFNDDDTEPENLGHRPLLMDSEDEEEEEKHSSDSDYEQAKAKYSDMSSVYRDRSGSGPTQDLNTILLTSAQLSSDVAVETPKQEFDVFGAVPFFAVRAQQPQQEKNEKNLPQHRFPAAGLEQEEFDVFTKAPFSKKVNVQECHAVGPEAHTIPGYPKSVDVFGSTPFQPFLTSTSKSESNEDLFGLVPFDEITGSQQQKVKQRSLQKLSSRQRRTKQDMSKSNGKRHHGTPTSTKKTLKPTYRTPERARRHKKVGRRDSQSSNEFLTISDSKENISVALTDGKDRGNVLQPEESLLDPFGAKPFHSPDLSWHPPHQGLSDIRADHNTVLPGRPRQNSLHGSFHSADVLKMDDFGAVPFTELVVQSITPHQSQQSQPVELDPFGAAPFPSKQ
Excerpt: as §1, §2

[1] = molecular target: NanoLuc-CITK (full-length human CITK) (Homo sapiens (Human), UniProt O14578); assay: NanoBRET intracellular target engagement assay; assay type: cell-based
Chain of NanoLuc-CITK (full-length human CITK) (O14578 other isoform, or with tags, fused parts or gaps): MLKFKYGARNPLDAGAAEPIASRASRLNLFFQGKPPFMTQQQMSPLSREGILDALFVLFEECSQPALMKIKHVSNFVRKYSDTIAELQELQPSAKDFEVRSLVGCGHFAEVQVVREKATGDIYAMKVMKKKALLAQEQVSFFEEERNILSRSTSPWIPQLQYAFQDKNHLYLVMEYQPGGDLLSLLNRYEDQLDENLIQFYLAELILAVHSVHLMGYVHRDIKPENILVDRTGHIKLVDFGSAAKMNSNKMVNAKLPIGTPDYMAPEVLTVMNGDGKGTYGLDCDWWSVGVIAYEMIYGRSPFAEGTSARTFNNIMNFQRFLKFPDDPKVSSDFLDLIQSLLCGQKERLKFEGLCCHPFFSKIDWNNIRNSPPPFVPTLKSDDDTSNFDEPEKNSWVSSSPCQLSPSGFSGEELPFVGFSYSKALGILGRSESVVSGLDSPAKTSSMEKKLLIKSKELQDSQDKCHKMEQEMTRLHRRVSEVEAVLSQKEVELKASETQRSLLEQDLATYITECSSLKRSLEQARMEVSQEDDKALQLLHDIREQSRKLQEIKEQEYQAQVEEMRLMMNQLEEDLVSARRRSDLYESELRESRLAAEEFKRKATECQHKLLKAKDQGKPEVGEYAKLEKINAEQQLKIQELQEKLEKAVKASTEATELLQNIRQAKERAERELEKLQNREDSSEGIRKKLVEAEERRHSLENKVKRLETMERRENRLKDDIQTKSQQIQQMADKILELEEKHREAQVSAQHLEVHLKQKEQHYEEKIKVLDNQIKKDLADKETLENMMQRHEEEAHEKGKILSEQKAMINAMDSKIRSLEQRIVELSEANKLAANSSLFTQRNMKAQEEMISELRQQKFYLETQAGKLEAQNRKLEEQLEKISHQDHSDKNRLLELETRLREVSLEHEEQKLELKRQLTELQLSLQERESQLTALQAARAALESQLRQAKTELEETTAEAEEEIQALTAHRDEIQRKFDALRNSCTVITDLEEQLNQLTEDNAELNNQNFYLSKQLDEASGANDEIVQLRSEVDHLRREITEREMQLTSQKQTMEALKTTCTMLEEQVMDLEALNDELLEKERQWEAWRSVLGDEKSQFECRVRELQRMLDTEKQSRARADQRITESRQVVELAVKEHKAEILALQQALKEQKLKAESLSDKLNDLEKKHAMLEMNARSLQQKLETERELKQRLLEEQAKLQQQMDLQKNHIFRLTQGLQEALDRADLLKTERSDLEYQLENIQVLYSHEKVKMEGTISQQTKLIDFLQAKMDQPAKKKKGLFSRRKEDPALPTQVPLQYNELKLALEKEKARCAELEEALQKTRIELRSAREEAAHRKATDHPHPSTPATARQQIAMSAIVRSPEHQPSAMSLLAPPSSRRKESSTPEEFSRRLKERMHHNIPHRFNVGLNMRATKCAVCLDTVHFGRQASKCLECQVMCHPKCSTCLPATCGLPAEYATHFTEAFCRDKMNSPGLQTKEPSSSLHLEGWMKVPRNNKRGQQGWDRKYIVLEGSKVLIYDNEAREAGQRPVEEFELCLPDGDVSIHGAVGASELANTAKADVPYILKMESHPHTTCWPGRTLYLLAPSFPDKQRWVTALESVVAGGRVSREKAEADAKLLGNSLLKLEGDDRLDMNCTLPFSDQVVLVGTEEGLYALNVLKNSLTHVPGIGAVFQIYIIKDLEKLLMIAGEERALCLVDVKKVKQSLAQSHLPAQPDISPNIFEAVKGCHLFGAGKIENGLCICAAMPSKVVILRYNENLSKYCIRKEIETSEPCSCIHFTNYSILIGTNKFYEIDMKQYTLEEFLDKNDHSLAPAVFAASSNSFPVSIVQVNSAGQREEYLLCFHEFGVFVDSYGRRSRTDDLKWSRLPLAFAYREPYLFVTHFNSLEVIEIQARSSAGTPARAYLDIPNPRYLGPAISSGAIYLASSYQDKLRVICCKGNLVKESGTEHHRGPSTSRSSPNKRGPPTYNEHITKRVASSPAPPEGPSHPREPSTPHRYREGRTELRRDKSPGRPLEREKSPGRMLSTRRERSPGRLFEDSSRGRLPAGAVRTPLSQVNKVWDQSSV
Experimental: In-cell Kd values were evaluated with a NanoBRET Target Engagement Assay essentially as recommended by the manufacturer (Promega Corporation—for details see https://www.promega.com/resources/technologies/nanoluc-luciferase-enzyme/cellular-target-engagement/).
HEK293T cells were transfected with 5.0 μg/mL sterile NanoLuc-CITK DNA, 5.0 μg/mL Transfection Carrier DNA, and 30 μL/mL FugeneHD® (Promega) in Opti-Mem™ (Thermo) media at a cell density of 250,000 cells/mL. […] 5 μL of the 25× Tracer K10 solution was added to each well. Next, designated inhibitors were prepared from powder as 10 mM DMSO stocks and then further diluted to 10× the final assay concentration in Opti-Mem™. 12-pt dose-response curves were prepared by 3×-serial dilution. […] A 3× Complete Substrate+Inhibitor solution, containing 6 mL of Opti-Mem™, 36 μL of NanoBRET Nano-Glo Substrate, and 12 μL Extracellular NanoLuc Inhibitor was freshly prepared for each plate. 50 μL of the 3× Complete Substrate+Inhibitor solution was added to all wells and the plate was incubated for 2 min with 500 RPM shaking. The bottom of the plates were covered with black plate seals and then measured on a Cytation 5 plate reader (Biotek) with a NanoBRET Filter Cube (Biotek; 450/50 emission & 610LP emission). Background corrected BRET ratios (in mBU) were calculated in Excel and IC50's were subsequently extracted using four-parameter non-linear regression in GraphPad Prism 8.

PKAα = PKAα (Homo sapiens (Human), UniProt P17612); assay: KinaseProfiler radiometric assay (14-440KP); assay type: biochemical; settings: mean of at least two independent experiments
Excerpt: as §3, §2

Cc1cc2c(-c3ccc(NC(=O)[C@H](N)C(C)(C)O)cc3C)ccnc2[nH]1 [Compound F-140, (2R)-2-Amino-3-hydroxy-3-methyl-N-[3-methyl-4-(2-methyl-1H-pyrrolo[2,3-b]pyridin-4-yl)phenyl]butanamide]
IC50 (AAK1): 1.91 µM
IC50 (Citron kinase): 0.04 µM
IC50 (ROCK-2): > 3 µM
IC50 (HIPK4): > 3 µM
IC50 (Mnk2): 1.99 µM
IC50 (DRAK2): > 3 µM
IC50 (ACK1): > 3 µM
IC50 (IKKβ): > 3 µM
IC50 (BIKE): > 3 µM
Kd [1]: 108 nM
IC50 ([1]; HEK293T cells transfected with NanoLuc-CITK, Tracer K10 1 μM, 2 hours): 0.58 µM
IC50 (PKAα): > 3 µM
